Source: ChEMBL document CHEMBL1134824, “Beta-D-glycosylamidines: potent, selective, and easily accessible 1-glycosidase inhibitors” (Bioorg Med Chem Lett, 2001)

Columns and labels:
[1] = Compound was evaluated for the selective and competitive inhibition of Alpha-glucosidase from Bacillus sp. at 2.5 mM; NI = No inhibition
[2] = Compound was evaluated for the selective and competitive inhibition of Alpha-glucosidase from Aspergillus niger at 2.5 mM; NI = No inhibition
[3] = Compound was evaluated for the selective and competitive inhibition of Beta-galactosidase from Aspergillus pulverulentus
[4] = Compound was evaluated for the selective and competitive inhibition of Beta-galactosidase from Aspergillus oryzae at 2.5 mM; NI = No inhibition
[5] = Compound was evaluated for the selective and competitive inhibition of Alpha-glucosidase from Yeast at 2.5 mM; parameters: species or system Saccharomyces cerevisiae
[6] = Compound was evaluated for the selective and competitive inhibition of Beta-glucosidase from Almond; parameters: species or system Prunus dulcis
[7] = Compound was evaluated for the selective and competitive inhibition of Beta-glucosidase from Trichoderma viride
[8] = Compound was evaluated for the selective and competitive inhibition of beta-glucosidase from Aspergillus niger
[9] = Compound was evaluated for the selective and competitive inhibition of Beta-galactosidase from Escherichia coli at 2.5 mM; NI = No inhibition
[10] = Compound was evaluated for the basicity, pKa of the conjugate acids; format: physicochemical
[11] = biological target: T1, Exo-1,4-beta-xylosidase xlnD (Aspergillus niger, UniProt O00089); experiment: Compound was evaluated for the selective and competitive inhibition of beta-xylosidase from A. pulverulentus; NI = No inhibition at 2.5 mM; parameters: species or system Aspergillus pulverulentus
T1 sequence (O00089 whole entry): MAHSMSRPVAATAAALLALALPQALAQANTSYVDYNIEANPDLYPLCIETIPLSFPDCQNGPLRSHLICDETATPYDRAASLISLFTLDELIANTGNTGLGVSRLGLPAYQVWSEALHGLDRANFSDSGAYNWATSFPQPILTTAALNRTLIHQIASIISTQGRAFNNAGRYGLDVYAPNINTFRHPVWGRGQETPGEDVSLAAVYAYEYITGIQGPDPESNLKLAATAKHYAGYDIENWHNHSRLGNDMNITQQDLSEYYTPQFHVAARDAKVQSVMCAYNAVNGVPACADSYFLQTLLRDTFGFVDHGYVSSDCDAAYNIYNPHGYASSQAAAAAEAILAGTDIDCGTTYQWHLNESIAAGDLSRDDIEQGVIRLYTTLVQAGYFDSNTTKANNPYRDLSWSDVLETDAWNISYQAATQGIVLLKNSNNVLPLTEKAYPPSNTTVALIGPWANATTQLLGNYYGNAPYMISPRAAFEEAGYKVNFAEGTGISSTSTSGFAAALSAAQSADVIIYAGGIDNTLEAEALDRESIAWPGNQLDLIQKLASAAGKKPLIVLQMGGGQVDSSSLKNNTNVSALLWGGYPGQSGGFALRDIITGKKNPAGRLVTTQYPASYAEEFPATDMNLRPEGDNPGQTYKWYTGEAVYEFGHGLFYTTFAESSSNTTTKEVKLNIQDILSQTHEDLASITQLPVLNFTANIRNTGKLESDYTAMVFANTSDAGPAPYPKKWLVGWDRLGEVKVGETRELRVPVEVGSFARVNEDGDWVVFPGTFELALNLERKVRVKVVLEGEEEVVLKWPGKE

[12] = Compound was evaluated for the selective and competitive inhibition of Alpha-glucosidase from Aspergillus niger
[13] = Compound was evaluated for the selective and competitive inhibition of Beta-glucosidase from Aspergillus niger
[14] = Compound was evaluated for the selective and competitive inhibition of Beta-glucosidase from Almond at 2.5 mM; NI = No inhibition; parameters: species or system Prunus dulcis
[15] = Compound was evaluated for the selective and competitive inhibition of Alpha-glucosidase from Yeast; parameters: species or system Saccharomyces cerevisiae
[16] = Compound was evaluated for the selective and competitive inhibition of Beta-galactosidase from Escherichia coli
[17] = Compound was evaluated for the selective and competitive inhibition of Beta-xylosidase from Aspergillus pulverulentus at 2.5 mM; NI = No inhibition
[18] = Compound was evaluated for the selective and competitive inhibition of Alpha-glucosidase from Bacillus sp.
[19] = Compound was evaluated for the selective and competitive inhibition of Alpha-glucosidase from Yeast at 2.5 mM; NI = No inhibition; parameters: species or system Saccharomyces cerevisiae
[20] = biological target: T1, Exo-1,4-beta-xylosidase xlnD; experiment: Compound was evaluated for the selective and competitive inhibition of Beta-xylosidase from Aspergillus pulverulentus
[21] = Compound was evaluated for the selective and competitive inhibition of Beta-galactosidase from Aspergillus oryzae

| Ki [1] | Ki [2] | Ki [4] | Ki [6] [µM] | Ki [7] [µM] | pKa [10] | Ki [12] [µM] | Ki [13] [µM] | Ki [15] [µM] | Compound | Ki [9] | Ki [16] [µM] | also measured |
| --- | --- | --- | --- | --- | --- | --- | --- | --- | --- | --- | --- | --- |
| – | – | – | – | – | 5.6 | – | – | – | NC1OCC(O)C(O)C1O (centres undefined) | – | – | – |
| Not Active | – | Not Active | – | 770 | – | > 2500 | 770 | > 2500 | O=C(Cc1ccccc1)NC1OC(CO)C(O)C(O)C1O (centres undefined) | – | > 2000 | Ki [11]: No inhibition; Ki [14]: Not Active |
| – | – | – | – | – | 5.6 | – | – | – | NC1OC(CO)C(O)C(O)C1O (centres undefined) | – | – | – |

The remaining lines, values behind:

| Compound | Ki [1] | Ki [2] | Ki [4] | Ki [6] [µM] | Ki [7] [µM] | pKa [10] | Ki [12] [µM] | Ki [13] [µM] | Ki [15] [µM] | Ki [9] | Ki [16] [µM] | also measured |
| --- | --- | --- | --- | --- | --- | --- | --- | --- | --- | --- | --- | --- |
| Br.N=C(Cc1ccccc1)NC1OCC(O)C(O)C1O (centres undefined) | Not Active | Not Active | Not Active | 1100 | 13 | – | – | – | – | Not Active | – | Ki [3]: 2.5 µM; Ki [5]: No inhibition; Ki [8]: 11 µM |
| Br.N=C(Cc1ccccc1)NC1OC(CO)C(O)C(O)C1O (stereo in doubt; 1a) | – | Not Active | Not Active | 73 | 0.13 | – | > 2500 | 0.094 | 21 | Not Active | – | Ki [17]: Not Active; Ki [18]: > 2500 µM |
| Br.N=C(Cc1ccccc1)NC1OC(CO)C(O)C(O)C1O (stereo in doubt; 1b) | Not Active | – | – | 41 | 390 | – | 47 | 390 | – | – | 7.8 | Ki [19]: Not Active; Ki [20]: 1000 µM; Ki [21]: 2.4 µM |
